Read-outs that look alike come from different tables or passages of the source.
Columns and labels:
[1] = molecular target: full-length human HPK1 (MAP4K1) (Homo sapiens (Human), UniProt Q92918); assay: HPK1 Kinase Assay (Biochemical Assay), ADP-Glo; details: GST-HPK1 3.2 nM, 10 μM ATP, MBP substrate, read-out: HPK1 enzymatic IC50
How it was run: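 GST-tagged full-length human HPK1 was expressed in Sf21 cells and used at 3.2 nM in 50 mM HEPES pH 7.5, 10 mM MgCl2, 2 mM DTT, 12.5 mM O-glycerophosphate, 0.01% BSA and 0.02% Brij-35. It was preincubated 15 min with 10-point compound dilutions, and the reaction was started with a start mix of 10 μM ATP and 3.235 μM MBP. After 120 min, ADP was measured by ADP-Glo luminescence and IC50 derived.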

[2] = molecular target: HPK1 (SLP76 phosphorylation at Ser376 in Jurkat and EL-4 cells) (Homo sapiens, UniProt Q92918); type: cell-based
Sequence of HPK1 (SLP76 phosphorylation at Ser376 in Jurkat and EL-4 cells) (Q92918 whole entry, looked up): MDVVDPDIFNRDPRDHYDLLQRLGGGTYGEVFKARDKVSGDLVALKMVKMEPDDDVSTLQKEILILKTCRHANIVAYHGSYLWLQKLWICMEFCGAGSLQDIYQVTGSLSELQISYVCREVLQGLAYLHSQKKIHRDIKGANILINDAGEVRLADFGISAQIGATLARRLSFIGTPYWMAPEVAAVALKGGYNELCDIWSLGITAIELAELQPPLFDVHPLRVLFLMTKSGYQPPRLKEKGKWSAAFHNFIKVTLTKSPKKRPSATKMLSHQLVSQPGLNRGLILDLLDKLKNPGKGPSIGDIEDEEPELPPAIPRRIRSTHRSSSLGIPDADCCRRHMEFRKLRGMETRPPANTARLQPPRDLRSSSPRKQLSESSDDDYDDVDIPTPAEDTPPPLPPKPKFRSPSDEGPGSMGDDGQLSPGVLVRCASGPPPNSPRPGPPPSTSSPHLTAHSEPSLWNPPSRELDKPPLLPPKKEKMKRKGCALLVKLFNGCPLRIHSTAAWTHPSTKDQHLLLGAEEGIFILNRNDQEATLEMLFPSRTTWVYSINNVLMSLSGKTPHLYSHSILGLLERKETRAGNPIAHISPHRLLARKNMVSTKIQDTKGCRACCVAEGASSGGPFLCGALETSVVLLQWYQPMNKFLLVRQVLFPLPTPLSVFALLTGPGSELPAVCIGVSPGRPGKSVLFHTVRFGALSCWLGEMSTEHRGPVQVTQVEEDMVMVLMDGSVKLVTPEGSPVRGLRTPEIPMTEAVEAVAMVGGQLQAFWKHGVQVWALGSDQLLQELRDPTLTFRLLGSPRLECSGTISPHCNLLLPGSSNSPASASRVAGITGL
How it was run: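 Jurkat (human) and EL-4 (mouse) cells, endogenous HPK1/SLP76, preincubated 60 min with compounds (10-point dilution), then stimulated with αCD3/αCD28 beads at 37 °C: 15 min for Jurkat, 30 min for EL-4. Ser376 pSLP76 in lysates read by AlphaLISA (Jurkat) or HTRF (EL-4); % inhibition and IC50 fitted.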

[3] = αCD3/αCD28 Dynabeads stimulated cells, pSLP76 (Ser376) detection; read-out: HPK1 pSLP76 IC50
[4] = read-out: HPK1 pSLP76 IC50; αCD3/αCD28 Dynabeads stimulated cells, pSLP76 (Ser376) detection

Sequence of full-length human HPK1 (MAP4K1) (Q92918 whole entry): as the sequence (Q92918 whole entry, looked up) above

IC50 [1] | IC50 [2, 3] | Structure (SMILES) | IC50 [2, 4]
< 100 nM | > 1000 nM | Cc1c(N2CCc3cnc(Nc4ccc(CN(C)C)cc4)nc3C2)cnc2c1NCCO2 [Example 59, N-{4-[(dimethylamino)methyl]phenyl}-7-{8-methyl-1H,2H,3H-pyrido[2,3-b][1,4]oxazin-7-yl}-5H,6H,7H,8H-pyrido[3,4-d]pyrimidin-2-amine; formic acid] | –
< 100 nM | < 500 nM | COC(=O)Nc1ccc(Nc2ncc3c(n2)CN(c2cnc4c(c2C)NCCO4)CC3)cc1 [Example 71, methyl N-{4-[(7-{8-methyl-1H,2H,3H-pyrido[2,3-b][1,4]oxazin-7-yl}-5H,6H,7H,8H-pyrido[3,4-d]pyrimidin-2-yl)amino]phenyl}carbamate] | –
< 100 nM | 500 to 1000 nM | CC(=O)Nc1ccc(Nc2ncc3c(n2)CN(c2cnc4c(c2C)NCCO4)CC3)cn1 [Example 73, N-(5-((7-(8-methyl-2,3-dihydro-1H-pyrido[2,3-b][1,4]oxazin-7-yl)-5,6,7,8-tetrahydropyrido[3,4-d]pyrimidin-2-yl)amino)pyridin-2-yl)acetamide] | –
< 100 nM | < 500 nM | Cc1c(N2CCc3cnc(Nc4ccnc(C5CCOCC5)c4)nc3C2)cnc2c1NCCO2 [Example 76, 7-(8-methyl-2,3-dihydro-1H-pyrido[2,3-b][1,4]oxazin-7-yl)-N-(2-(tetrahydro-2H-pyran-4-yl)pyridin-4-yl)-5,6,7,8-tetrahydropyrido[3,4-d]pyrimidin-2-amine] | –
< 100 nM | < 500 nM | Cc1c(N2CCc3cnc(Nc4ccnc(N5CCOCC5)c4)nc3C2)cnc2c1NCCO2 [Example 77, 7-(8-methyl-2,3-dihydro-1H-pyrido[2,3-b][1,4]oxazin-7-yl)-N-(2-morpholinopyridin-4-yl)-5,6,7,8-tetrahydropyrido[3,4-d]pyrimidin-2-amine] | –
< 100 nM | < 500 nM | Cc1c(N2CCc3cnc(Nc4cccc(S(C)(=O)=O)c4)nc3C2)cnc2c1NCCO2 [Example 79, 7-(8-methyl-2,3-dihydro-1H-pyrido[2,3-b][1,4]oxazin-7-yl)-N-(3-(methylsulfonyl)phenyl)-5,6,7,8-tetrahydropyrido[3,4-d]pyrimidin-2-amine] | –
< 100 nM | 500 to 1000 nM | CCc1cc(Nc2ncc3c(n2)CN(c2cnc4c(c2C)NCCO4)CC3)ccc1N1CCC(O)CC1 [Example 80, 1-(2-ethyl-4-((7-(8-methyl-2,3-dihydro-1H-pyrido[2,3-b][1,4]oxazin-7-yl)-5,6,7,8-tetrahydropyrido[3,4-d]pyrimidin-2-yl)amino)phenyl)piperidin-4-ol] | –
< 100 nM | < 500 nM | Cc1c(N2CCc3cnc(Nc4ccc5c(c4)CCOC5)nc3C2)cnc2c1NCCO2 [Example 84, N-(isochroman-6-yl)-7-(8-methyl-2,3-dihydro-1H-pyrido[2,3-b][1,4]oxazin-7-yl)-5,6,7,8-tetrahydropyrido[3,4-d]pyrimidin-2-amine] | –
< 100 nM | > 1000 nM | Cc1c(N2CCc3cnc(Nc4ccc5c(c4)CNC5=O)nc3C2)cnc2c1NCCO2 [Example 85, 5-((7-(8-methyl-2,3-dihydro-1H-pyrido[2,3-b][1,4]oxazin-7-yl)-5,6,7,8-tetrahydropyrido[3,4-d]pyrimidin-2-yl)amino)isoindolin-1-one] | –
< 100 nM | 500 to 1000 nM | Cc1c(N2CCc3cnc(Nc4ccc(OC[C@@H]5COCCO5)cc4)nc3C2)cnc2c1NCCO2 [Example 90, (S)—N-(4-((1,4-dioxan-2-yl)methoxy)phenyl)-7-(8-methyl-2,3-dihydro-1H-pyrido[2,3-b][1,4]oxazin-7-yl)-5,6,7,8-tetrahydropyrido[3,4-d]pyrimidin-2-amine] | –
< 100 nM | < 500 nM | Cc1c(N2CCc3cnc(Nc4ccc(N5CCC(O)CC5)c(CC#N)c4)nc3C2)cnc2c1NCCO2 [Example 91, 2-(2-(4-hydroxypiperidin-1-yl)-5-((7-(8-methyl-2,3-dihydro-1H-pyrido[2,3-b][1,4]oxazin-7-yl)-5,6,7,8-tetrahydropyrido[3,4-d]pyrimidin-2-yl)amino)phenyl)acetonitrile] | –

Continued, compound first:

Structure (SMILES) | IC50 [1] | IC50 [2, 3] | IC50 [2, 4]
Cc1c(N2CCc3cnc(Nc4ccc(CS(C)(=O)=O)nc4)nc3C2)cnc2c1NCCO2 [Example 58, 6-(methanesulfonylmethyl)-N-(7-{8-methyl-1H,2H,3H-pyrido[2,3-b][1,4]oxazin-7-yl}-5H,6H,7H,8H-pyrido[3,4-d]pyrimidin-2-yl)pyridin-3-amine] | < 100 nM | < 500 nM | –
Cc1c(N2CCc3cnc(Nc4cccc(CN5CCOCC5)c4)nc3C2)cnc2c1NCCO2 [Example 60, 7-{8-methyl-1H,2H,3H-pyrido[2,3-b][1,4]oxazin-7-yl}-N-{3-[(morpholin-4-yl)methyl]phenyl}-5H,6H,7H,8H-pyrido[3,4-d]pyrimidin-2-amine] | < 100 nM | – | 500 to 1000 nM
Cc1c(N2CCc3cnc(Nc4cccc(N5CCN(C)CC5)c4)nc3C2)cnc2c1NCCO2 [Example 61, 7-{8-methyl-1H,2H,3H-pyrido[2,3-b][1,4]oxazin-7-yl}-N-[3-(4-methylpiperazin-1-yl)phenyl]-5H,6H,7H,8H-pyrido[3,4-d]pyrimidin-2-amine] | < 100 nM | – | 500 to 1000 nM
CS(=O)(=O)Cc1ccc(Nc2ncc3c(n2)CN(c2cnc4c(c2Cl)NCCO4)CC3)cc1 [Example 63, 7-{8-chloro-1H,2H,3H-pyrido[2,3-b][1,4]oxazin-7-yl}-N-[4-(methanesulfonylmethyl)phenyl]-5H,6H,7H,8H-pyrido[3,4-d]pyrimidin-2-amine] | < 100 nM | < 500 nM | –
Cc1c(N2CCc3cnc(Nc4cccc(CN5CCN(C)CC5)c4)nc3C2)cnc2c1NCCO2 [Example 66, 7-{8-methyl-1H,2H,3H-pyrido[2,3-b][1,4]oxazin-7-yl}-N-{3-[(4-methylpiperazin-1-yl)methyl]phenyl}-5H,6H,7H,8H-pyrido[3,4-d]pyrimidin-2-amine] | < 100 nM | 500 to 1000 nM | –
Cc1c(N2CCc3cnc(Nc4ccnc(C(C)(C)O)c4)nc3C2)cnc2c1NCCO2 [Example 67, 2-{4-[(7-{8-methyl-1H,2H,3H-pyrido[2,3-b][1,4]oxazin-7-yl}-5H,6H,7H,8H-pyrido[3,4-d]pyrimidin-2-yl)amino]pyridin-2-yl}propan-2-ol] | < 100 nM | 500 to 1000 nM | –
Cc1c(N2CCc3cnc(Nc4cc5n(n4)CC(=O)N(C)CC5)cc3C2)cnc2c1NCCO2 [Example 68, 6-methyl-2-[(6-{8-methyl-1H,2H,3H-pyrido[2,3-b][1,4]oxazin-7-yl}-5,6,7,8-tetrahydro-2,6-naphthyridin-3-yl)amino]-4H,5H,6H,7H,8H-pyrazolo[1,5-d][1,4]diazepin-7-one] | < 100 nM | < 500 nM | –
Cc1c(N2CCc3cnc(Nc4ccc(CS(C)(=O)=O)cc4)nc3C2)cnc2c1NCCO2 [Example 69, N-[4-(methanesulfonylmethyl)phenyl]-7-{8-methyl-1H,2H,3H-pyrido[2,3-b][1,4]oxazin-7-yl}-5H,6H,7H,8H-pyrido[3,4-d]pyrimidin-2-amine] | < 100 nM | < 500 nM | –
Cc1c(N2CCc3cnc(Nc4ccnc(N5CCN(C)CC5)c4)nc3C2)cnc2c1NCCO2 [Example 72, N-(7-{8-methyl-1H,2H,3H-pyrido[2,3-b][1,4]oxazin-7-yl}-5H,6H,7H,8H-pyrido[3,4-d]pyrimidin-2-yl)-2-(4-methylpiperazin-1-yl)pyridin-4-amine] | < 100 nM | < 500 nM | –
CNC(=O)c1ccc(Nc2ncc3c(n2)CN(c2cnc4c(c2C)NCCO4)CC3)cc1F [Example 74, 2-fluoro-N-methyl-4-((7-(8-methyl-2,3-dihydro-1H-pyrido[2,3-b][1,4]oxazin-7-yl)-5,6,7,8-tetrahydropyrido[3,4-d]pyrimidin-2-yl)amino)benzamide] | < 100 nM | < 500 nM | –
Cc1c(N2CCc3cnc(Nc4ccc5c(c4)CS(=O)(=O)C5)nc3C2)cnc2c1NCCO2 [Example 81, 5-((7-(8-methyl-2,3-dihydro-1H-pyrido[2,3-b][1,4]oxazin-7-yl)-5,6,7,8-tetrahydropyrido[3,4-d]pyrimidin-2-yl)amino)-1,3-dihydrobenzo[c]thiophene 2,2-dioxide] | < 100 nM | < 500 nM | –
Cc1c(N2CCc3cnc(Nc4cccc(C(C)(C)O)c4)nc3C2)cnc2c1NCCO2 [Example 82, 2-(3-((7-(8-methyl-2,3-dihydro-1H-pyrido[2,3-b][1,4]oxazin-7-yl)-5,6,7,8-tetrahydropyrido[3,4-d]pyrimidin-2-yl)amino)phenyl)propan-2-ol] | < 100 nM | < 500 nM | –
COCCOc1ccc(Nc2ncc3c(n2)CN(c2cnc4c(c2C)NCCO4)CC3)cc1CO [Example 83, (2-(2-methoxyethoxy)-5-((7-(8-methyl-2,3-dihydro-1H-pyrido[2,3-b][1,4]oxazin-7-yl)-5,6,7,8-tetrahydropyrido[3,4-d]pyrimidin-2-yl)amino)phenyl)methanol] | < 100 nM | 500 to 1000 nM | –
CN1CCc2ncc(Nc3ncc4c(n3)CN(c3cnc5c(c3)NCCO5)CC4)cc2C1 [Example 87, 7-(2,3-dihydro-1H-pyrido[2,3-b][1,4]oxazin-7-yl)-N-(6-methyl-5,6,7,8-tetrahydro-1,6-naphthyridin-3-yl)-5,6,7,8-tetrahydropyrido[3,4-d]pyrimidin-2-amine] | 100 to 1000 nM | > 1000 nM | –

Reference: US20240025922A1, “TETRAHYDROPYRIDO[3,4-d]PYRIMIDINES AS HPK1 INHIBITORS” (Merck Patent GmbH, priority 2022, published 2024)
